Activity calls are given as the source filed them. No cut-off for these calls is given here.
Experiments:
[1] = system: HT-29; assay: Induction of apoptosis in human HT-29 cells assessed as viable cells at 0.3 uM measured after 48 hrs in presence of AZD1390 by Annexin V-FITC/Propidium iodide staining based flow cytometry analysis (reference value: 95.33%); format: functional; details: read-out: Activity
[2] = system: HT-29; assay: Induction of apoptosis in human HT-29 cells assessed as viable cells at 1 uM measured after 48 hrs in presence of AZD1390 by Annexin V-FITC/Propidium iodide staining based flow cytometry analysis (reference value: 95.33%); format: functional; details: read-out: Activity
[3] = system: HT-29; assay: Induction of apoptosis in human HT-29 cells assessed as necrotic cells at 0.3 uM measured after 48 hrs in presence of AZD1390 by Annexin V-FITC/Propidium iodide staining based flow cytometry analysis (reference value: 0.23%); format: functional
[4] = Toxicity in NOD/SCID mouse xenografted with human LoVo cells assessed as damage in heart at 50 to 100 mg/kg, po administered bid for 30 days measured after 2 hrs post last dose by H and E staining method; format: organism-based; details: in vivo, 720 h, dose 50-100 mg/kg, time 30 day
[5] = system: LoVo; assay: Antitumor activity against human LoVo cells xenografted in NOD/SCID mouse assessed as tumor growth inhibition at 100 mg/kg, po BID for 30 days measured every 2 to 3 days; format: functional; details: 720 h, time 30 day, read-out: TGI
[6] = system: LoVo; assay: Induction of DNA damage in human LoVo cells deficient in ATM at 1 uM measured after 3 days by immunofluorescence assay; format: functional, cell-based; details: time 3.0 day
[7] = Toxicity in NOD/SCID mouse xenografted with human LoVo cells assessed as damage in liver at 50 to 100 mg/kg, po administered bid for 30 days measured after 2 hrs post last dose by H and E staining method; format: organism-based; details: in vivo, 720 h, dose 50-100 mg/kg, time 30 day
[8] = Cmax in Sprague-Dawley rat at 10 mg/kg, po measured at 0.083 to 24 hrs by LC-MS/MS method; format: ADME, organism-based; set-up: time 0.083-24 hrs, dose 10 mg/kg, route po; details: in vivo
[9] = system: HT-29; assay: Induction of apoptosis in human HT-29 cells assessed as necrotic cells at 3 uM measured after 48 hrs by Annexin V-FITC/Propidium iodide staining based flow cytometry analysis (reference value: 0.73%); format: functional
[10] = system: A549; assay: Antiproliferative activity against ATM proficient human A549 cells assessed as reduction in cell viability incubated for 72 hrs by MTT assay; format: functional, cell-based; details: dose 0.001-100 µM, DDE = dose-dependent effect
[11] = system: HT-29; assay: Induction of apoptosis in human HT-29 cells assessed as early apoptotic cells at 0.3 uM measured after 48 hrs by Annexin V-FITC/Propidium iodide staining based flow cytometry analysis (reference value: 1.55%); format: functional
[12] = system: HT-29; assay: Induction of apoptosis in human HT-29 cells assessed as early apoptotic cells at 1 uM measured after 48 hrs by Annexin V-FITC/Propidium iodide staining based flow cytometry analysis (reference value: 1.55%); format: functional
[13] = system: SW-620; assay: Antiproliferative activity against ATM-deficient human SW-620 cells assessed as reduction in cell viability incubated for 72 hrs by MTT assay; format: functional, cell-based; details: dose 0.001-100 µM, DDE = dose-dependent effect
[14] = system: HT-29; assay: Induction of apoptosis in human HT-29 cells assessed as viable cells at 0.3 uM measured after 48 hrs by Annexin V-FITC/Propidium iodide staining based flow cytometry analysis (reference value: 97.01%); format: functional; details: read-out: Activity
[15] = molecular target: T1, Serine/threonine-protein kinase ATR (Homo sapiens, UniProt Q13535); assay: In vivo inhibition of ATR in human LoVo cells xenografted in NOD/SCID mouse assessed as inhibition of ATR phosphorylation at 50 to 100 mg/kg, po administered twice a day for 30 days by Western blot analysis; details: dose 50-100 mg/kg, time 30.0 day
[16] = system: HT-29; assay: Induction of apoptosis in human HT-29 cells assessed as late apoptotic cells at 1 uM measured after 48 hrs in presence of AZD1390 by Annexin V-FITC/Propidium iodide staining based flow cytometry analysis (reference value: 0.63%); format: functional
[17] = system: HT-29; assay: Induction of apoptosis in human HT-29 cells assessed as early apoptotic cells at 1 uM measured after 48 hrs in presence of AZD1390 by Annexin V-FITC/Propidium iodide staining based flow cytometry analysis (reference value: 3.81%); format: functional
[18] = system: LoVo; assay: Induction of apoptosis in human LoVo cells deficient in ATM assessed as viable cells at 0.3 uM measured after 24 hrs by Annexin V-FITC/Propidium iodide staining based flow cytometry analysis (reference value: 91.64%); format: functional; details: read-out: Activity
[19] = Toxicity in NOD/SCID mouse xenografted with human LoVo cells assessed as body weight loss at 50 to 100 mg/kg, po administered bid for 30 days; format: organism-based; details: in vivo, 720 h, dose 50-100 mg/kg, time 30 day
[20] = system: LoVo; assay: In vivo induction of DNA damage in human LoVo cells xenografted in NOD/SCID mouse assessed as increase in gamma H2AX level administered orally twice a day for 30 days by immuno histochemical analysis; format: functional, organism-based; details: dose 50-100 mg/kg, route po, time 30.0 day, DDE = dose-dependent effect
[21] = system: HT-29; assay: Induction of apoptosis in human HT-29 cells assessed as late apoptotic cells at 0.3 uM measured after 48 hrs in presence of AZD1390 by Annexin V-FITC/Propidium iodide staining based flow cytometry analysis (reference value: 0.63%); format: functional
[22] = system: LoVo; assay: Induction of apoptosis in human LoVo cells deficient in ATM assessed as necrotic cells at 3 uM measured after 24 hrs by Annexin V-FITC/Propidium iodide staining based flow cytometry analysis (reference value: 0.84%); format: functional
[23] = system: HT-29; assay: Antiproliferative activity against human HT-29 cells assessed as reduction in cell viability incubated for 72 hrs in presence of AZD1390 by MTT assay; format: functional, cell-based; details: HT-29, 72 h
[24] = system: Granta-519; assay: Antiproliferative activity against ATM-deficient human Granta-519 cells assessed as reduction in cell viability incubated for 72 hrs by MTT assay; format: functional, cell-based; details: dose 0.001-100 µM, DDE = dose-dependent effect
[25] = Toxicity in NOD/SCID mouse xenografted with human LoVo cells assessed as damage in kidney at 50 to 100 mg/kg, po administered bid for 30 days measured after 2 hrs post last dose by H and E staining method; format: organism-based; details: in vivo, 720 h, dose 50-100 mg/kg, time 30 day
[26] = system: HepG2; assay: Antiproliferative activity against ATM proficient human HepG2 cells assessed as reduction in cell viability incubated for 72 hrs by MTT assay; format: functional, cell-based; details: dose 0.001-100 µM, DDE = dose-dependent effect
[27] = system: HT-29; assay: Induction of apoptosis in human HT-29 cells assessed as late apoptotic cells at 1 uM measured after 48 hrs by Annexin V-FITC/Propidium iodide staining based flow cytometry analysis (reference value: 0.71%); format: functional
[28] = molecular target: T1, Serine/threonine-protein kinase ATR; assay: Inhibition of ATR signalling in ATM-deficient human LoVo cells assessed as change in expression of Chk1 at up to 3 uM incubated for 1 hr followed by hydroxyurea addition measured after 4 hrs by Western blot analysis; format: cell-based; details: time 5.0 hrs
[29] = system: HT-29; assay: Induction of apoptosis in human HT-29 cells assessed as late apoptotic cells at 3 uM measured after 48 hrs by Annexin V-FITC/Propidium iodide staining based flow cytometry analysis (reference value: 0.71%); format: functional
[30] = molecular target: Serine-protein kinase ATM (Homo sapiens) (UniProt Q13315); assay: Activation of ATM signaling in human HT-29 cells proficient in ATM at 1 uM measured after 3 days by immunofluorescence assay; format: cell-based; details: filed as activator, time 3.0 day

T1 sequence (Q13535 whole entry, looked up): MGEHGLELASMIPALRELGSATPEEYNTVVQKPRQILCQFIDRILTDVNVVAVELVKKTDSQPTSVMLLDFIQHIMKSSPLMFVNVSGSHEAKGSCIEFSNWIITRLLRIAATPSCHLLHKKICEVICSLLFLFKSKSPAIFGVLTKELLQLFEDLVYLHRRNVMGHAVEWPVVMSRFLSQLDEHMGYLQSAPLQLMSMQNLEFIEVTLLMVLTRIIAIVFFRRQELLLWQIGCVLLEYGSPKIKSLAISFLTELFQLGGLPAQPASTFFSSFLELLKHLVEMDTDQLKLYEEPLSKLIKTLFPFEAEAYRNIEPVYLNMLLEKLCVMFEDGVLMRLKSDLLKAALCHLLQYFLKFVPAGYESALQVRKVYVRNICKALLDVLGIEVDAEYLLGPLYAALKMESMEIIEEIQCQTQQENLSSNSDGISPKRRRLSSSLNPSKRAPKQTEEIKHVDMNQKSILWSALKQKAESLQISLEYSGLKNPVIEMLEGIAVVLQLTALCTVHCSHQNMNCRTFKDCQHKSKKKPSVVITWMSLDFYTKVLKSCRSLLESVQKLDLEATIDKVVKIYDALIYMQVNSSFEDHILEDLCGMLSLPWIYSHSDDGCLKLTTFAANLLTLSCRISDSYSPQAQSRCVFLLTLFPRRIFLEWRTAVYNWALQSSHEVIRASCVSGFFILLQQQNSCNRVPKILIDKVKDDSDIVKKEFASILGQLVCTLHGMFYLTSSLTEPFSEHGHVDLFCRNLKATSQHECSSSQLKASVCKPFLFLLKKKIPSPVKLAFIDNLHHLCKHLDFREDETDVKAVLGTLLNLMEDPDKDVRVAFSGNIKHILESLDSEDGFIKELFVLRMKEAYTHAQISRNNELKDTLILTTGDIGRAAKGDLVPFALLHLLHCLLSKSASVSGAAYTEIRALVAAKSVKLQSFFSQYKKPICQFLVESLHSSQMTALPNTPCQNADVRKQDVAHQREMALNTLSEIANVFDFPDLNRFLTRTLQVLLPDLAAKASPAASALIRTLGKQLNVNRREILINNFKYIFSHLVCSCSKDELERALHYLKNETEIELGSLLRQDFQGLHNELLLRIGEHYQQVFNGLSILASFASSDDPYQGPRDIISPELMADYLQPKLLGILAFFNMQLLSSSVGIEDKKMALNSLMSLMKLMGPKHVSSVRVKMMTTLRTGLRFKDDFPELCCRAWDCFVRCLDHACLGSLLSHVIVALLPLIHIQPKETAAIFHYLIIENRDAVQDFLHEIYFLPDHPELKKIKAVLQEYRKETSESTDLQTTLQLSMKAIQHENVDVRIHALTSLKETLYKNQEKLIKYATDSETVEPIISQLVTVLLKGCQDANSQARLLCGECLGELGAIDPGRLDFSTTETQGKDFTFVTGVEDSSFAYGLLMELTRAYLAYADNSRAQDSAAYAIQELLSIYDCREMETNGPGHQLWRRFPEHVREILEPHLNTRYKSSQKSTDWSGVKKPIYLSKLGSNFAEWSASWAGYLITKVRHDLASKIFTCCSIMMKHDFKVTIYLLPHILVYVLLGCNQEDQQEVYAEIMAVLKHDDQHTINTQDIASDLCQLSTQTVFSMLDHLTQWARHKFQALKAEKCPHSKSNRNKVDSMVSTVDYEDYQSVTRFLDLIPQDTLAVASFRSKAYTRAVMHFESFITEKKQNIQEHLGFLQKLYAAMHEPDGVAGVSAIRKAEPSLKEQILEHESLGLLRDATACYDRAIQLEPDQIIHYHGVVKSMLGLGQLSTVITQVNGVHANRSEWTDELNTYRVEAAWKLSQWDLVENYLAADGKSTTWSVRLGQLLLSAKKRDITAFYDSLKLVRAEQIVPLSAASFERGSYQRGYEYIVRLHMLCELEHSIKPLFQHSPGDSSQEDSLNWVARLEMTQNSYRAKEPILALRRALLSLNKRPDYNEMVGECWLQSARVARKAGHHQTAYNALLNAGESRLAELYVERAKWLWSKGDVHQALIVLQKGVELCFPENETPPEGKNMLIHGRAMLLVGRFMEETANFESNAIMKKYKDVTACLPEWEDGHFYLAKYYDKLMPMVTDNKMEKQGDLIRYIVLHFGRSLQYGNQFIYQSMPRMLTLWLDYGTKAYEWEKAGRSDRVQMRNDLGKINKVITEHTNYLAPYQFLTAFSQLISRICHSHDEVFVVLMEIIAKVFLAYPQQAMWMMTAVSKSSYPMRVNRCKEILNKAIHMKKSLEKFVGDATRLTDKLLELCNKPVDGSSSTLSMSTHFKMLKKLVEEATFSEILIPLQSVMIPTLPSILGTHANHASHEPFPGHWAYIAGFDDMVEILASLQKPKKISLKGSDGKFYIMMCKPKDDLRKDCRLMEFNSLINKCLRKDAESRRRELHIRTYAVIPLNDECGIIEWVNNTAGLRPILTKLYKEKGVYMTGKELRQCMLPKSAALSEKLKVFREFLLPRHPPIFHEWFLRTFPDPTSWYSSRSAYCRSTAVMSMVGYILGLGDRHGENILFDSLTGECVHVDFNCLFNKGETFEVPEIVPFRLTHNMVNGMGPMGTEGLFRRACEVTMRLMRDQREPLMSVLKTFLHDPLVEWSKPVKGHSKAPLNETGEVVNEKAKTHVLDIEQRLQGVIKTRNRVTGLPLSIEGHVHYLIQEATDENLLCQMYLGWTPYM

C[C@@H]1COCCN1c1nc(-c2cccc3[nH]ccc23)nc2ccc(-c3ccnn3C)cc12
viability at 0.3 µM [1]: 79%
viability at 1 µM [2]: 80.9%
Activity [3]: 3.91%
Activity [4]: Non-Toxic
inhibition in vivo at 100 mg/kg [5]: 72.8%
Activity [6]: Active
Activity [7]: Non-Toxic
Cmax [8]: 895 ng/mL
Activity [9]: 1.71%
Activity [10]: Dde
Activity [11]: 1.47%
Activity [12]: 2.32%
Activity [13]: Dde
viability at 0.3 µM [14]: 95.4%
Activity [15]: Active
Activity [16]: 9.54%
Activity [17]: 7.45%
viability at 0.3 µM [18]: 55.9%
Activity [19]: Non-Toxic
Activity [20]: Dde
Activity [21]: 9.85%
Activity [22]: 3.01%
IC50 [23]: 439 nM
Activity [24]: Dde
Activity [25]: Non-Toxic
Activity [26]: Dde
Activity [27]: 1.92%
inhibition [28]: Active
Activity [29]: 2.52%
Activity [30]: Active
